SMILES strings stand for the structures. pKi: −log10 of the molar value.

For experiment [1], the target named is T1, Purine nucleoside phosphorylase (Homo sapiens, UniProt P00491).
T1 sequence (P00491 whole entry): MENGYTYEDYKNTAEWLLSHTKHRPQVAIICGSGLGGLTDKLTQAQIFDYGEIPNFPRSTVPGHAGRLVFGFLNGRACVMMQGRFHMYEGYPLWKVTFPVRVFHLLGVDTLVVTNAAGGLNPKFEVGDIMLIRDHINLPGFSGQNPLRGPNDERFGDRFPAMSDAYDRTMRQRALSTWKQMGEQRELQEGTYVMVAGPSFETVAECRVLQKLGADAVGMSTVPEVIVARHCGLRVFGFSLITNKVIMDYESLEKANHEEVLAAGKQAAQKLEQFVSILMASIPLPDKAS
In words: Inhibition of human erythrocyte purine nucleoside phosphorylase (PNPase) in the presence of ethylenediaminetetraacetic acid (Na2 EDTA).

Experiment [2] addresses T1, Purine nucleoside phosphorylase. Description: Inhibition of human erythrocyte purine nucleoside phosphorylase (PNPase) in the presence of zinc chloride.

Consider `Nc1nc(O)c2ncn(CCCCP(=O)(O)CP(=O)(O)O)c2n1`, for which the negative-log Ki (pKi) in experiment [1] was 5.85; in experiment [2], 7.00.

As for `Nc1nc(O)c2ncn(CCCCCCCP(=O)(O)CP(=O)(O)O)c2n1`, the negative-log Ki (pKi) is 5.96 in experiment [1] and 8.00 in experiment [2].

With `Nc1nc(O)c2ncn(CCCCCCP(=O)(O)CP(=O)(O)O)c2n1`, the figures for the pKi in experiment [1] and in experiment [2] were 6.41 and 8.43, respectively.

Consider `CCOP(=O)(O)CP(=O)(O)CCCCCn1cnc2c(O)nc(N)nc21`, for which the figures for the pKi in experiment [1] and in experiment [2] were 4.85 and 5.96, respectively.

Turning to `O=c1[nH]c(=O)c2ncn(CCCCCP(=O)(O)CP(=O)(O)O)c2[nH]1`, the figures for the pKi in experiment [1] and in experiment [2] were 3.57 and 5.85, respectively.

What is called pKi is −log10 of the Ki, conventionally taken in molar units.

These data come from ChEMBL document CHEMBL1128258, “[[(Guaninylalkyl)phosphinico]methyl]phosphonic acids. Multisubstrate analogue inhibitors of human erythrocyte purine nucleoside phosphorylase” (J Med Chem, 1995).
